Results on ten molecules are retold here after ChEMBL document CHEMBL1142268, “Histone deacetylase inhibitors: from bench to clinic” (J Med Chem, 2008).

Data set [1] concerns HCT-116. Briefly: Antitumor activity against human HCT116 cells xenografted in ip dosed nude mouse assessed as tumor volume inhibition. The format is functional.
Another data set deals with SK-BR-3. Briefly: Antiproliferative activity against human SKBR3 cells. The class given is functional, cell-based.
In the next data set the test system is MKN-45. Briefly: Antiproliferative activity against human MKN45 cells. The format is functional, cell-based.
For the next data set, the system named is MCF7. Briefly: Inhibition of human MCF7 cells. The format is functional, cell-based.
The subject of data set [2] is HCT-116. As to the kind of experiment: Inhibition of human HCT116 cells. The class given is functional, cell-based.
Data set [3] deals with A549. Briefly: Antitumor activity against human A549 cells xenografted in nude mouse model at 20 mg/kg, ip. The format is functional. The settings on record: route intraperitoneal, read-out: TGI. Background: Xenograft models place foreign cells or tissue in a host animal.
Data set [4] has as its system HCT-116. Briefly: Antitumor activity against human HCT116 cells xenografted in nude mouse model at 20 mg/kg, ip. The format is functional. The settings on record: HCT-116, ip, route intraperitoneal, read-out: TGI.
The test system of data set [5] is SW48. Briefly: Antitumor activity against human SW48 cells xenografted in nude mouse model at 20 mg/kg, ip. The format is functional. The settings on record: route intraperitoneal, read-out: TGI.
A further data set has as its system SW-620. As to the kind of experiment: Inhibition of human SW620 cells. The class given is functional, cell-based.
A short description of data set [6]: Inhibition of human CCD1059SK cells. The format is functional, cell-based.
Data set [7] relates to A549. As to the kind of experiment: cells. The settings on record: Homo sapiens.
Description: Antiproliferative activity against human A549 cells
The test system of a further data set is HeLa. As to the kind of experiment: Inhibition of human HeLa cells. The class given is functional, cell-based.
The subject of a further data set is HL-60. As to the kind of experiment: Inhibition of human HL60 cells. The class given is functional.
Data set [8] deals with A549. Briefly: Antitumor activity against human A549 cells xenografted in nude mouse model at 70 mg/kg, po. The format is functional. Particulars: read-out: TGI.
In data set [9] the test system is SW48. As to the kind of experiment: Antitumor activity against human SW48 cells xenografted in nude mouse model at 60 mg/kg, po. The format is functional. The settings on record: read-out: TGI.
Data set [10] deals with SW48. As to the kind of experiment: Antitumor activity against human SW48 cells xenografted in nude mouse model at 25 mg/kg, ip. Particulars: route intraperitoneal, read-out: TGI. The class given is functional.
For data set [11], the target named is T1, Histone deacetylase 1 (Homo sapiens, UniProt Q13547).
Description: Inhibition of human HDAC1
Data set [12] has as its target T1, Histone deacetylase 1. This is another data set of the same source.
Description: Inhibition of human HDAC1 assessed as histone H4 acetylation in cell based assay
For the next data set, the target named is Histone deacetylase 3 (Homo sapiens, UniProt O15379).
The target in data set [13] is T1, Histone deacetylase 1. The source holds these as a separate data set.
The target in the next data set is T2, Histone deacetylase 8 (Homo sapiens, UniProt Q9BY41).
T2 sequence (Q9BY41 whole entry): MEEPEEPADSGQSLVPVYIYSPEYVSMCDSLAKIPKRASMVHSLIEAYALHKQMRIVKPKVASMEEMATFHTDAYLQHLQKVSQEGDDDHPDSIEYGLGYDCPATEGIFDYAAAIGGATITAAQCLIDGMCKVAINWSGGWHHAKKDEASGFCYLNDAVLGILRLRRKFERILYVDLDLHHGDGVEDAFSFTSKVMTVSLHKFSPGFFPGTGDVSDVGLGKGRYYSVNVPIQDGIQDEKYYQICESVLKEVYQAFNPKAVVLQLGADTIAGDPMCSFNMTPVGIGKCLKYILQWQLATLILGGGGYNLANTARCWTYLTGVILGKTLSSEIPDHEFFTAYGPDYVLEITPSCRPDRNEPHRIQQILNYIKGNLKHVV

The target of data set [14] is T3, Protein deacetylase HDAC6 (Homo sapiens, UniProt Q9UBN7).
T3 sequence (Q9UBN7 whole entry): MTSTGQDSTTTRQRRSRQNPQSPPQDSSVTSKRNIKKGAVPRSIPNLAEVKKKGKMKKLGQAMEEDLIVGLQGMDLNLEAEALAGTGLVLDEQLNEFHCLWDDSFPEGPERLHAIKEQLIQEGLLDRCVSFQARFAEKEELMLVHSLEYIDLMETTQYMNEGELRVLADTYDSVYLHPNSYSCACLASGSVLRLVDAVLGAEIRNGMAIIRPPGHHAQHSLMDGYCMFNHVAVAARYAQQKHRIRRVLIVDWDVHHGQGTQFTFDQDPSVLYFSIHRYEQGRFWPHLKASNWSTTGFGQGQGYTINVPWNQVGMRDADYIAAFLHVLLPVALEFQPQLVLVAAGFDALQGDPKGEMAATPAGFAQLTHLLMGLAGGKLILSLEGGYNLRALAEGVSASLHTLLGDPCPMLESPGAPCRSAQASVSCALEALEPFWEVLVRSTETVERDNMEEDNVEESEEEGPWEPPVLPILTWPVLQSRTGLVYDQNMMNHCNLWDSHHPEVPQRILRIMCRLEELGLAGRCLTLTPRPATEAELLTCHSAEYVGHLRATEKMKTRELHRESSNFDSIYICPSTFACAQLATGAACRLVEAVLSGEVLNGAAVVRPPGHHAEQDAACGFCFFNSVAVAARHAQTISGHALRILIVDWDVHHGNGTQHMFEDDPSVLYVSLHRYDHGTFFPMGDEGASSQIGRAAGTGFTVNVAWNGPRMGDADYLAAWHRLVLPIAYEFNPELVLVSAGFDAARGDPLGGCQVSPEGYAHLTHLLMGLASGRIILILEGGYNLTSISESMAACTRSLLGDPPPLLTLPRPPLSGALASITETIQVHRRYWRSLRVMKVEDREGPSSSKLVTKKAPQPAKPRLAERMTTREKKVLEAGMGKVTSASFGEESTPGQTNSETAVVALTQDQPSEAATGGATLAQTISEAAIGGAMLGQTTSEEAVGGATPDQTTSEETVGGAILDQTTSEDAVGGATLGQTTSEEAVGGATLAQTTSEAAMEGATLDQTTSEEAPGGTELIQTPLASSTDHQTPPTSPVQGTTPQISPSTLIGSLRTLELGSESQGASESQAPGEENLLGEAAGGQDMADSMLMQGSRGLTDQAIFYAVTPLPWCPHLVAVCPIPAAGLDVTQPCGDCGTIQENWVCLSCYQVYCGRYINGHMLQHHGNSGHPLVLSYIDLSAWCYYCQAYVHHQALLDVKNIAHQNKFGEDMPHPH

In data set [15] the target is T1, Histone deacetylase 1. As to the kind of experiment: Inhibition of HDAC1 from human HeLa cells. The class given is cell-based.
Data set [16] can be described thus: Metabolic stability in human liver microsomes. The format is ADME, Microsome. For orientation: Microsomes from liver hold many membrane-bound enzymes, among them those of drug oxidation.
The next data set concerns the target Histone deacetylase 2 (Homo sapiens, UniProt Q92769).
The next data set deals with U-937. Briefly: Inhibition of human U937 cells. The format is functional, cell-based.
Another data set deals with A2780. Briefly: Inhibition of human A2780 cells. The format is functional, cell-based.
Another data set relates to G-401. As to the kind of experiment: Inhibition of human G401 cells. The class given is functional, cell-based.
Data set [17] in a line: Growth inhibition of human renal epithelial cells. The format is functional, cell-based. The settings on record: Epithelial cell.
Another data set deals with Histone deacetylase 5 (Homo sapiens, UniProt Q9UQL6).
A further data set deals with Histone deacetylase 4 (Homo sapiens, UniProt P56524).
Data set [18] addresses Histone deacetylase 7 (Homo sapiens) (UniProt Q8WUI4). Briefly: Inhibition of HDAC7.
Data set [19] is described as follows: Bioavailability in […] dosed rat. The format is ADME, organism-based. Particulars: in vivo.
The subject of data set [20] is A549. As to the kind of experiment: Antitumor activity against human A549 cells xenografted in nude mouse model at 50 mg/kg, po. The settings on record: read-out: TGI. The format is functional.
Another data set deals with PANC-1. As to the kind of experiment: Antitumor activity against human PANC1 cells xenografted in nude mouse model at 50 mg/kg, po. The format is functional. The settings on record: read-out: TGI.
In data set [21] the test system is SW48. As to the kind of experiment: Antitumor activity against human SW48 cells xenografted in nude mouse model at 30 mg/kg, po. Particulars: read-out: TGI. The format is functional.
Data set [22] deals with A549. As to the kind of experiment: Antitumor activity against human A549 cells xenografted in nude mouse model at 40 mg/kg, ip. Particulars: route intraperitoneal, read-out: TGI. The class given is functional.
Data set [23] relates to HCT-116. Briefly: Antitumor activity against human HCT116 cells xenografted in nude mouse model at 75 mg/kg, ip. The class given is functional. The settings on record: HCT-116, ip, route intraperitoneal, read-out: TGI.
Data set [24] deals with SW48. As to the kind of experiment: Antitumor activity against human SW48 cells xenografted in nude mouse model at 75 mg/kg, ip. The format is functional. The settings on record: route intraperitoneal, read-out: TGI.

The source made the active and inactive calls. The calls are words filed in the database; no cut-off is given here.

T1 sequence (Q13547 whole entry): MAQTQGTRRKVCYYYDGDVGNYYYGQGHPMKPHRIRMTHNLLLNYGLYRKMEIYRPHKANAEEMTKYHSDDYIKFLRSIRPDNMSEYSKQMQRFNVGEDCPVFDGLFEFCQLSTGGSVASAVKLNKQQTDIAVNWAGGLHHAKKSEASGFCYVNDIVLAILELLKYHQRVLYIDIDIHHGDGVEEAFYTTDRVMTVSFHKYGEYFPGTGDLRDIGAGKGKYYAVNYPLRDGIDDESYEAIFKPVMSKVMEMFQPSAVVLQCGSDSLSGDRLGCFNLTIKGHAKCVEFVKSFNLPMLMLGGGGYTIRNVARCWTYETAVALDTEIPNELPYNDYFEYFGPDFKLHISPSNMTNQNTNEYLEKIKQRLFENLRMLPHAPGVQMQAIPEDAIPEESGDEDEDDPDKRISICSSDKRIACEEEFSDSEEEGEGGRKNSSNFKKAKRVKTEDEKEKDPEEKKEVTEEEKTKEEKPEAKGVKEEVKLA
Histone deacetylase 3, sequence (O15379 whole entry): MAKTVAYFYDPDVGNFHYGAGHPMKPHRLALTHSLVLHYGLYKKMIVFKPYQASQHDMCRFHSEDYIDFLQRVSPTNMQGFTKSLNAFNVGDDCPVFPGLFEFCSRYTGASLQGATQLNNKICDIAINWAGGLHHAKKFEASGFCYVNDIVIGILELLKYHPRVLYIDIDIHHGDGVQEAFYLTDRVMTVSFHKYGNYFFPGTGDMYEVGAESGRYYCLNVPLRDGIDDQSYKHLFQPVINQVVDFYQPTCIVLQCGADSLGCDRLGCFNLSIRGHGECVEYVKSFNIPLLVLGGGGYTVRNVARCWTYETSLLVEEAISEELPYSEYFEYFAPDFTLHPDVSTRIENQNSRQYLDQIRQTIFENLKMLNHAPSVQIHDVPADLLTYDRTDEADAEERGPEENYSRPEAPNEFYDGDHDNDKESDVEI
Histone deacetylase 7 (Homo sapiens), sequence (Q8WUI4 whole entry): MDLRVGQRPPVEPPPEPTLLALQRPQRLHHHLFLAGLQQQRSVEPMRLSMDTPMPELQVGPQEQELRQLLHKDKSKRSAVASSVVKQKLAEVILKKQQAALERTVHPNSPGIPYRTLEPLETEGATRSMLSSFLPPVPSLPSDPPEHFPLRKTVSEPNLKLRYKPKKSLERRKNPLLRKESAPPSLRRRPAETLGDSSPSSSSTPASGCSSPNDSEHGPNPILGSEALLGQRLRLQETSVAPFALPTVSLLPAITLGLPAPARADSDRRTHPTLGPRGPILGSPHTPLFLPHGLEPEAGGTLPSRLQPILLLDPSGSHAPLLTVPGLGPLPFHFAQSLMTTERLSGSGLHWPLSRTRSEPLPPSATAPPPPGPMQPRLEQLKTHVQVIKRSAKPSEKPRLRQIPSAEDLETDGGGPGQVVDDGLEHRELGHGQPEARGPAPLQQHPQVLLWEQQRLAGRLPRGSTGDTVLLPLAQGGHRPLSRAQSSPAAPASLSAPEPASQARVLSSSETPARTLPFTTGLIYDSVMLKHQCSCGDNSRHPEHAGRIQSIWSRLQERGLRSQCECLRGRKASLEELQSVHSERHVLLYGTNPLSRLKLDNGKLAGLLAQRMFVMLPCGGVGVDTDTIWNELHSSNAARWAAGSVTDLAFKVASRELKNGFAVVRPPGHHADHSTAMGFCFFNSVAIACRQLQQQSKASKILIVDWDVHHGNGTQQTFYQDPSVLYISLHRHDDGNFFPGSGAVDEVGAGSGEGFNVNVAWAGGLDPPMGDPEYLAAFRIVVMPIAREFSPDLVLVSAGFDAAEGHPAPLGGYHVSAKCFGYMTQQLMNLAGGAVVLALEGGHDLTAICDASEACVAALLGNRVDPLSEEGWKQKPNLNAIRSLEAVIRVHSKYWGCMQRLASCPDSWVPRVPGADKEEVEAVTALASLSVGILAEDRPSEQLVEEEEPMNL
Histone deacetylase 4, sequence (P56524 whole entry): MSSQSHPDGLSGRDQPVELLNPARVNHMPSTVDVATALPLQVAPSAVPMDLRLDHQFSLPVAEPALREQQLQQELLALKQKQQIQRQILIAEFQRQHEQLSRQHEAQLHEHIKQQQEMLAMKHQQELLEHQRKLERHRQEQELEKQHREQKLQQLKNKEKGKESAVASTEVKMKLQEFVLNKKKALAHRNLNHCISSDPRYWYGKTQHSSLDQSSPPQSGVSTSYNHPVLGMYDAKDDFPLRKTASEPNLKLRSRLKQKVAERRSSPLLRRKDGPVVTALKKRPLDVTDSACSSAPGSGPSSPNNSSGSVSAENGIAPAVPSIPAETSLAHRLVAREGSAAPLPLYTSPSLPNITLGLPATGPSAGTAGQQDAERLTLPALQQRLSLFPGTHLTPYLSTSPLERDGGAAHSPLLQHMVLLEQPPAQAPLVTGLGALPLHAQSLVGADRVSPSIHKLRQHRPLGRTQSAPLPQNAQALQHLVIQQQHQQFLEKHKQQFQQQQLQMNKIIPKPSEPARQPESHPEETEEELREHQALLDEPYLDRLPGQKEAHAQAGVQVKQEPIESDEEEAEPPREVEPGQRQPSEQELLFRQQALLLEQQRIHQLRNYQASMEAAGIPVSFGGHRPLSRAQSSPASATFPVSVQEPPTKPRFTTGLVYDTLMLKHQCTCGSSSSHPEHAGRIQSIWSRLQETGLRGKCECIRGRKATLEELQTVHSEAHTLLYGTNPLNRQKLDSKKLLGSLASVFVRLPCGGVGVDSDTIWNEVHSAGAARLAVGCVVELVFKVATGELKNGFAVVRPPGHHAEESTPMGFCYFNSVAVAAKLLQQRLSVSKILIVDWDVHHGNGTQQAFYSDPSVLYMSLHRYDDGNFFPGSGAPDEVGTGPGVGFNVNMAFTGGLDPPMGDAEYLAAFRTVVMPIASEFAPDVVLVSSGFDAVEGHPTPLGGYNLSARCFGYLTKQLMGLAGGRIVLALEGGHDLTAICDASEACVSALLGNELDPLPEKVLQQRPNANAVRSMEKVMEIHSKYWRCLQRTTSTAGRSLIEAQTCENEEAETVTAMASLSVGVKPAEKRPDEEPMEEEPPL
Histone deacetylase 2, sequence (Q92769 whole entry): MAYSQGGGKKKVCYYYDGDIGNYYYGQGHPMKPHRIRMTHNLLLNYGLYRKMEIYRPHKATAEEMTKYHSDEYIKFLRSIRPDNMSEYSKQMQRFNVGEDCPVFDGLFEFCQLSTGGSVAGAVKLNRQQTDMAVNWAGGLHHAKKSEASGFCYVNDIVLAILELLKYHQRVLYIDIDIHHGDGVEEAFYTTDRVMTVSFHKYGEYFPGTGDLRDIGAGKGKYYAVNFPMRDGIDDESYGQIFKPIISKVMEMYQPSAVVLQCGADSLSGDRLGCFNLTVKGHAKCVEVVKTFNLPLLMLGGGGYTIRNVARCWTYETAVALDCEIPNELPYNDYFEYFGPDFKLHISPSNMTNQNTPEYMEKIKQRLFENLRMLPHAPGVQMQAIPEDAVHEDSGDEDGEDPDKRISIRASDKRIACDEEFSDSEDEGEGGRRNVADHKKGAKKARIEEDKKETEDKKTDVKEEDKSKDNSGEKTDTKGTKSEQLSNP
Histone deacetylase 5, sequence (Q9UQL6 whole entry): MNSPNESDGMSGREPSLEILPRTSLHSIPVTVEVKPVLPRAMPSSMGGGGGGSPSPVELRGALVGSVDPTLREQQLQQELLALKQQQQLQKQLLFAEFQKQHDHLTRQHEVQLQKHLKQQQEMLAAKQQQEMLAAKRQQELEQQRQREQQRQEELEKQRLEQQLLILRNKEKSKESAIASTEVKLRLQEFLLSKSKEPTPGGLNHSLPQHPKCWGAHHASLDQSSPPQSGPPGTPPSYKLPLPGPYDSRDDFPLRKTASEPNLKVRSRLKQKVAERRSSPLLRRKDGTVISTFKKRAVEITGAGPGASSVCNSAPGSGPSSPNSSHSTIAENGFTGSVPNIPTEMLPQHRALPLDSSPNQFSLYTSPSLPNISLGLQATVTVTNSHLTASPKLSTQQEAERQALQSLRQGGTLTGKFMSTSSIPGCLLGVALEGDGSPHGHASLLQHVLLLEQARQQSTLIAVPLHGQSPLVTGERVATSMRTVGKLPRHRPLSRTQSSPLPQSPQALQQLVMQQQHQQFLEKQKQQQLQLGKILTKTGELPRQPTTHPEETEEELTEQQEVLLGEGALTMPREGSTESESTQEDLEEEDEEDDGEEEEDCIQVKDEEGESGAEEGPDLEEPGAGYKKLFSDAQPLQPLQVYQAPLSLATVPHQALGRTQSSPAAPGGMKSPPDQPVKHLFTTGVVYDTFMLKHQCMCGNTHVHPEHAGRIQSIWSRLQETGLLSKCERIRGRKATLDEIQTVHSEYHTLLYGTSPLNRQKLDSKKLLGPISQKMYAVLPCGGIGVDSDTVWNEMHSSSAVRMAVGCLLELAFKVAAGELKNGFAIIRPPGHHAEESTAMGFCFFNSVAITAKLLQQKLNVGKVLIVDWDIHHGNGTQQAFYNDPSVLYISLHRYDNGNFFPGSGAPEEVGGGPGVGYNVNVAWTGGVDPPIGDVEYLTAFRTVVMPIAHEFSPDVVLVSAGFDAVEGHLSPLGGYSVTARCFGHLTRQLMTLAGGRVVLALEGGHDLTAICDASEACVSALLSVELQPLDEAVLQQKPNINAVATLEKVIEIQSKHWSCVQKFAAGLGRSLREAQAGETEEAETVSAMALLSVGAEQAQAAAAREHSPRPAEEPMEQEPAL

Take `COc1ccc(NCc2ccc(C(=O)Nc3cc(-c4cccs4)ccc3N)cc2)cc1OC`: the Inhibition with HCT-116 [1] amounted to 72%.

For the molecule `COc1cc(NCc2ccc(/C=C/C(=O)Nc3cc(-c4cccs4)ccc3N)cc2)cc(OC)c1OC`, the Inhibition in the data set on HCT-116 [1] is on record as 78%.

On to `Nc1ccccc1NC(=O)c1ccc(CNC(=O)OCc2cccnc2)cc1` [ENTINOSTAT], for which the half-inhibitory concentration (IC50) is 870 nM in the data set with SK-BR-3; 4.16 µM in the data set on MKN-45; 4300 nM in the data set with MCF7; 500 nM in the data set on HCT-116 [2]; 3.2 µM in the data set with SW-620; 65 µM in data set [6]. In the data set on A549 [7], this molecule showed a half-maximal inhibitory concentration (IC50) of 3580 nM. The results for the inhibition in vivo at 20 mg/kg in the data set on A549 [3], in the data set with HCT-116 [4] and in the data set on SW48 [5] were 46%, 56% and 68%, respectively.

Consider `Nc1ccc(F)cc1NC(=O)c1ccc(CNC(=O)/C=C/c2ccccc2)cc1`, for which the GI50 with HeLa worked out at 40 µM; in the data set with HL-60, 400 nM.

On to `COc1cc(NCc2ccc(/C=C/C(=O)Nc3ccccc3N)cc2)cc(OC)c1OC`, for which, in the data set with HCT-116 [2], inhibition was half-maximal at 2000 nM (IC50). Besides, the inhibition in vivo at 70 mg/kg in the data set on A549 [8] was 40%. Besides, in the data set with SW48 [9], the inhibition in vivo at 60 mg/kg was 16%. Also, the inhibition in vivo at 20 mg/kg with HCT-116 [4] stood at 80%. For the same molecule, in the data set with SW48 [10], the inhibition in vivo at 25 mg/kg stood at 73%.

`Nc1ccccc1NC(=O)CCCCCCNC(=O)c1ccc(-c2ccccc2)nc1`: the IC50 was 5000 nM in the data set on HCT-116 [2] and 3000 nM at Histone deacetylase 1 [11]. Also, the 50% effective concentration (EC50) on Histone deacetylase 1 [12] was 5 µM.

In the case of `O=C(/C=C/c1ccc(CN(CCO)CCc2cc3ccccc3[nH]2)cc1)NO`, the IC50 worked out at 3.7 nM at Histone deacetylase 3, 1.8 nM at Histone deacetylase 1 [13], 140 nM against Histone deacetylase 8 and 15 nM in data set [14].

`COc1ccc2[nH]c(C)c(CC(=O)N[C@@H](CCCCCC(C)=O)C(=O)NCCc3c(-c4ccccc4)[nH]c4ccccc34)c2c1`: the concentration for half-maximal inhibition (IC50) against Histone deacetylase 1 [15] was determined as 730 nM. For the same molecule, the microsomal CLint in data set [16] is greater than 300 µL/min/mg.

As for `CC(=O)CCCCC[C@H](NC1CCCCN1C)C(=O)Nc1nc(-c2ccccc2)cs1` (stereo not given in full), the half-maximal inhibitory concentration (IC50) against Histone deacetylase 3 was 14 nM; in the data set on MCF7, 230 nM; against Histone deacetylase 2, 170 nM; in the data set with HCT-116 [2] it was 670 nM; on Histone deacetylase 1 [15] it was 430 nM; in the data set on U-937, 450 nM. Further, the IC50 in the data set on A2780 is 1700 nM; with G-401 it was 250 nM; in [17], greater than 20 µM; in the data set on HeLa, 430 nM; on Histone deacetylase 1 [13], 55 nM; at Histone deacetylase 8 it was 3000 nM. Moreover, the IC50 is 55 nM on Histone deacetylase 1 [11], 13 nM in data set [14], 1900 nM at Histone deacetylase 5 and 2000 nM with A549 [7]. Moreover, the microsomal CLint in data set [16] amounted to 54 µL/min/mg. Besides, the AC50 entry at Histone deacetylase 4 is on record as “Not Active”. Besides, the outcome in [18] was inactive.

In the data set with HCT-116 [2], `COc1ccc(NCc2ccc(C(=O)Nc3ccccc3N)cc2)cc1OC` displayed an IC50 of 400 nM. Moreover, the bioavailability in data set [19] is 20%. For the same molecule, the inhibition in vivo at 50 mg/kg with A549 [20] turned out to be 67%; in the data set on PANC-1, 84%. The inhibition in vivo at 30 mg/kg in the data set on SW48 [21] was determined as 78%. The inhibition in vivo at 40 mg/kg in the data set on A549 [22] is 73%. Also, the inhibition in vivo at 75 mg/kg in the data set on HCT-116 [23] was determined as 86%; with SW48 [24] it was 100%.

In general, Inhibition refers to the change of the read-out against control, counted positive when it falls. In general, IC50 refers to the concentration needed to halve the response being measured. A lower IC50 goes with greater potency. What is called GI50 is the concentration giving 50% growth inhibition. The low end stands for more potent growth inhibition, the high end for less potent growth inhibition. The EC50 is the concentration at which the effect is half-maximal. One may read the microsomal CLint as a measure of how fast metabolising enzymes remove a compound, apart from limits set by blood flow. Higher therefore signals faster metabolism. The term bioavailability denotes the share of a dose that reaches the circulation, judged against a reference dose that is usually intravenous. A lower bioavailability goes with little systemic uptake.
